Laboratory results from ChEMBL document CHEMBL5052819, “Peptide targeting gip and glp-2 receptors for treating bone disorders” (2020).
Activity calls are given as the source filed them. The calls are words filed in the database; no cut-off is given here.

How the values were obtained:
Mus musculus [1] = test: Anti-osteoporosis activity in ovariectomized BALB/c mouse at 25 nmol/kg, sc assessed as reduction in trabecular spacing; assay type: functional; set-up: scale not given: the % may be the effect or the level left
[2] = Toxicity in ovariectomized BALB/c mouse at 25 nmol/kg, sc assessed as effect on morphological changes in liver; assay type: organism-based; conditions: in vivo
Mus musculus [3] = test: Anti-osteoporosis activity in ovariectomized BALB/c mouse at 100 nmol/kg/day, sc assessed as increase in post-yield displacement of cortical bone; assay type: functional
RAW264.7 = test: Inhibition of RANKL-induced osteoclastogenesis in mouse RAW264.7 cells measured after 110 hrs by TRAcP staining based assay; assay type: functional, cell-based; conditions: RAW264.7, 110 h
Mus musculus [4] = test: Anti-osteoporosis activity in ovariectomized BALB/c mouse at 100 nmol/kg, sc assessed as decrease in augmented acid phosphate content heterogeneity; assay type: functional; set-up: scale not given: the % may be the effect or the level left
Mus musculus [5] = test: Anti-osteoporosis activity in ovariectomized BALB/c mouse at 25 to 100 nmol/kg/day, sc assessed as effect on cortical bone microarchitecture; assay type: functional, organism-based; conditions: dose 25-100 nmol/kg
Mus musculus [6] = test: Anti-osteoporosis activity in ovariectomized BALB/c mouse at 25 to 100 nmol/kg/day, sc assessed as reduction in trabecular bone stiffness; assay type: functional, organism-based; conditions: dose 25-100 nmol/kg
Mus musculus [7] = test: Anti-osteoporosis activity in ovariectomized BALB/c mouse at 100 nmol/kg/day, sc assessed as increase in work-to-fracture of cortical bone; assay type: functional
[8] = Toxicity in ovariectomized BALB/c mouse at 25 nmol/kg, sc assessed as effect on morphological changes in pancreas; assay type: organism-based; conditions: in vivo
Mus musculus [9] = test: Anti-osteoporosis activity in ovariectomized BALB/c mouse at 100 nmol/kg, sc assessed as decrease in mean phosphate/amide ratio; assay type: functional; set-up: scale not given: the % may be the effect or the level left
Mus musculus [10] = test: Anti-osteoporosis activity in ovariectomized BALB/c mouse at 100 nmol/kg/day, sc assessed as increase in ultimate displacement of cortical bone; assay type: functional
Mus musculus [11] = test: Anti-osteoporosis activity in ovariectomized BALB/c mouse at 100 microg/kg, iv assessed as increase in trabecular bone mass; assay type: functional; conditions: dose 100 µg/kg
Mus musculus [12] = test: Anti-osteoporosis activity in ovariectomized BALB/c mouse at 100 microg/kg, iv assessed as increase in mineral crystallinity heterogeneity; assay type: functional; conditions: dose 100 µg/kg
Mus musculus [13] = test: Anti-osteoporosis activity in ovariectomized BALB/c mouse at 100 microg/kg, iv assessed as effect on cortical bone microarchitecture; assay type: functional, organism-based; conditions: dose 100.0 µg/kg
[14] = Toxicity in ovariectomized BALB/c mouse assessed as effect on body mass at 100 microg/kg, iv; conditions: in vivo, 0.1 mg/kg, dose 100 µg/kg
Mus musculus [15] = test: Anti-osteoporosis activity in ovariectomized BALB/c mouse at 100 microg/kg, iv assessed as reduction in trabecular bone stiffness; assay type: functional, organism-based; conditions: dose 100.0 µg/kg
Mus musculus [16] = test: Anti-osteoporosis activity in ovariectomized BALB/c mouse at 100 microg/kg, iv assessed as increase in trabecular number; assay type: functional; conditions: dose 100 µg/kg

SMILES	Activity (Mus musculus [1]) [%]	Activity [2]	Activity (Mus musculus [3]) [%]	IC50 (RAW264.7) [nM]	Activity (Mus musculus [4]) [%]	Activity (Mus musculus [5])	Activity (Mus musculus [6])	Activity (Mus musculus [7]) [%]	Activity [8]	Activity (Mus musculus [9]) [%]	Activity (Mus musculus [10]) [%]	Activity (Mus musculus [11]) [%]	Activity (Mus musculus [12]) [%]	Activity (Mus musculus [13])	Activity [14]	Activity (Mus musculus [15])	Activity (Mus musculus [16]) [%]
CC[C@H](C)[C@H](NC(=O)[C@H](CO)NC(=O)[C@H](Cc1ccccc1)NC(=O)[C@H](CC(=O)O)NC(=O)[C@H](CO)NC(=O)CNC(=O)[C@H](Cc1ccccc1)NC(=O)[C@H](CO)NC(=O)CNC(=O)[C@H](CCC(=O)O)NC(=O)CNC(=O)[C@@H](N)Cc1cnc[nH]1)C(=O)N[C@@H](C)C(=O)N[C@@H](CC(C)C)C(=O)N[C@@H](CC(=O)O)C(=O)N[C@@H](CCCCN)C(=O)N[C@@H](CC(C)C)C(=O)N[C@@H](C)C(=O)N[C@@H](C)C(=O)N[C@@H](CCCNC(=N)N)C(=O)N[C@@H](CC(=O)O)C(=O)N[C@@H](Cc1ccccc1)C(=O)N[C@H](C(=O)N[C@@H](CC(N)=O)C(=O)N[C@@H](Cc1c[nH]c2ccccc12)C(=O)N[C@@H](CC(C)C)C(=O)N[C@@H](CC(C)C)C(=O)N[C@@H](CCC(N)=O)C(=O)N[C@H](C(=O)N[C@@H](CCCCN)C(N)=O)[C@@H](C)O)C(C)C	17	Non-Toxic	62	0.036	18	inactive	Active	33	Non-Toxic	5	33						
O.O=P(O)(O)C(O)(Cn1ccnc1)P(=O)(O)O [ZOLEDRONIC ACID]												15	21	inactive	Non-Toxic	Active	12
